# Experimental data: patent US20240092779A1, “USP1 INHIBITORS AND USES THEREOF” (Zentaur Therapeutics USA Inc., priority 2022, published 2024)
# Assays:
# [1] = Liver microsomal stability (HLM); assay type: in vitro ADME; settings: human, liver microsomes, human liver microsomes 0.5 mg/mL, 1 μM compound, NADPH
# Procedure: Liver Microsomal Stability
# Certain Compounds of the Disclosure were assessed for ADME metabolic stability in human liver microsomes (HLM).
# Samples were prepared by adding 222.5 μL of a master solution (100 mM phosphate buffer and 0.5 mg/mL liver microsomes (HLM)) and 25 μL of a 10 mM NADPH solution to incubation plates, which were then warmed for 10 min. Each compound was separately dissolved in DMSO to prepare 10 mM stock solutions, which were then diluted to 100 μM with acetonitrile. A reaction was started by adding 2.5 μL of the […] solution of each compound to separate incubation plates such that the final concentration of for each compound in each plate was 1 μM. Aliquots of 30 μL were taken from the reaction solution at 0.5, 5, 15, 30 and 60 minutes. The reaction was stopped by the addition of 5 volumes of cold acetonitrile with IS (100 nM alprazolam, 200 nM caffeine and 100 nM tolbutamide). Aliquot of 100 μL of the supernatant was diluted by 100 μL ultra-pure water, and the mixture was used for LC/MS/MS analysis. Peak areas were determined from extracted ion chromatograms. […]. The percentage of remaining parent was calculated from peak area of test compound or PC. The slope value, k, is determined by linear regression of the natural logarithm of percent parent remaining vs. incubation time curve. All calculations are carried out using Microsoft Excel.
# The in vitro half-life (in vitro t1/2) is determined from the slope value:
# Conversion of the in vitro t1/2 (in min) into the in vitro intrinsic clearance (in vitro CLint, (HLM Clint (μL/min/mg proteins))) is done using the following equation: […]
# A: HLM Clint <10 μL/min/mg; B: 10 μL/min/mg≤HLM Clint <50 μL/min/mg; C: HLM Clint ≥50 μL/min/mg.
# [2] = system: HCC1806 Ub-PCNA (USP1); experiment: USP1 Western Blot Protocol (HCC1806 Ub-PCNA); assay type: cell-based; settings: HCC1806 cells, 4 hours
# Source text: USP1 Western Blot Protocol (HCC1806 Ub-PCNA)
# USP1 is a deubiquitinase that catalyze the hydrolysis of iso-peptide bond between ubiquitin and the substrate proteins. Inhibition of USP1 activity results in accumulation of mono-ubiquitinated substrate such as Ub-PCNA. A cell assay was set up to determine the cellular potency of USP1 compounds by monitoring the accumulation of Ub-PCNA. The signal intensity was detected by a specific Ub-PCNA antibody through Western-blot analysis.
# The assay was initiated by seeding HCC1806 cells (ATCC, CRL-2335) into 6-well plates (Corning, 3516), with a seeding density of 3×10^5 cells per well and 2 mL RPMI 1640 culture medium (Gibco, 11875119). The plates were incubated overnight at 37° C. and 5% CO2. Compounds, solubilized in DMSO (Solarbio, D8371) as 1 mM stock solution, were diluted in 4-fold steps for 5-cencentration point dose response plus a no-compound DMSO control. Diluted compounds (2 μL) were transferred into assay wells (with a final DMSO concentration of −0.1%) and the resulted assay plates incubated at 37° C. and 5% CO2 for 4 hours. After aspiration of culture medium, 100 μL of 4° C. RIPA lysis buffer (Boston BioProducts, BP-115D) supplemented with vendor recommended concentrations of protease (Roche, 4693116001) and phosphatase (Roche, 4906837001) inhibitor, was added to each well and incubated for 10 minutes on the ice. Cells were scrapped loose from the bottom of well with a scraper (Corning, 3008), transferred into a 600 μL EP tube, sonicated using Ultrasound (Qsonica, Q800R3, with 30% energy, 5-second pulse on/off cycles at 4° C., for total 2 minutes), centrifuged 13,000 rpm for 15 minutes at 4° C., and then the supernatant transferred to a new 600 μL EP tube. The total protein concentration was determined using BCA kit following vendor recommended protocol (Solarbio, PC0020-500). Loading samples were prepared by diluting the total protein concentration to 1.5 μg/μL with 5 X NuPAGE SDS loading buffer (Beyotime, P0015L) and RIPA lysis buffer, and boiling at 100° C. for 5 minutes.
# 15 μg protein from each sample was loaded onto NuPAGE® Novex 4-12% Bis-Tris Midi Gel, 26 W (Invitrogen, WG1403BOX) and electrophoresis was run at 80 V for 30 minutes and 120 V till the end using 1x NuPAGE® MOPS SDS Running Buffer (Novex, NP0001). The gel was then transferred to nitrocellulose membrane using the dry transfer system (iBlot 2 Transfer Stacks, nitrocellulose, D323001) with a program consisting of 20 V for 1 minute, 23 V for 4 minutes and 25 V for 2 minutes. After the membrane was blocked with 5% BSA (Solarbio, A8020) in 1X TBST (CST, 9997S) for 1 hour at room temperature, specific antibodies (Ubiquityl-PCNA antibody (CST, 13439) at 1:500 dilution, PCNA antibody (Santa Cruz, sc-56) at 1:1000 dilution, and GAPDH (CST, 5174) at 1:2000 dilution in 1 X TBST containing 1% BSA) were added and incubated at room temperature for 1.5 hours. After washing the Nitrocellulose membranes with 1 X TBST for 3 times, 10 minutes each time at room temperature, fluorescently labeled secondary antibodies (anti-rabbit IgG, Licor, 926-32211; anti-mouse IgG, LI-COR, 926-68070) at 1:5000 dilution in 1 X TBST containing 1% BSA were added and incubated for 1 hour at room temperature in the dark. The membranes were then rinsed with 1 X TBST and immersed in the RO water. Imaging of band intensity was acquired with Li—COR imaging system (Li—COR, Odyssey clx ES).
# Percentage of USP1 inhibition (% Vehicle) was calculated by using following equation examining Ub-PCNA upregulation:
# And IC50 was calculated using four-parameter logistic fitting program • Y=Bottom+(Top-Bottom)/(1+10 {circumflex over (()}(LogIC50−X)*Hill Slope)) • X=Log of dose or concentration
# (§1) Certain compounds were tested in the assays.
# [3] = system: MDA-MB-436 cells; experiment: CTG Protocol (MDA-MB-436 GI50), antiproliferative activity; assay type: cell-based, human; settings: MDA-MB-436 cells (BRCA1 mutation), 7-day incubation, CellTiter-Glo
# Procedure: CTG Protocol (MDA-MB-436 GI50)
# Antiproliferative activity of USP1 inhibitors was determined using breast cancer cell line MDA-MB-436 that harbors BRCA1 mutation. MDA-MB-436 cells (ATCC, HTB-130) was seeded with a seeding density of 1000 cells per well and 95 μL DMEM medium (Gibco, 10566016) into 96-well cell plates (Corning, 3610), and incubated overnight at 37° C. and 5% CO2. Compounds were solubilized in DMSO (Solarbio, D8371) as 10 mM stock solution, and then series diluted (3 folds) with DMSO for 9-point dose-response testing. The resulted series dilutions were then jump-diluted 50-fold by cell culture medium to afford the 20×stock solutions (containing 2% DMSO). Treatment was initiated by adding 5 μL of 20×stock solution to the assay plate and incubated at 37° C. and 5% CO2. At the end of 7-day incubation, cell assay plates were removed from incubation and equilibrated to room temperature (20 min). Then 100 μL of CellTiter-Glo (Promega, G9243) reagent, prepared per manufacturer's protocol, was added to each well, and the resulted plates were centrifuged 1,000 rpm for 1 minute, incubated at room temperature in the dark for 20 minutes, sealed with Perkin Elmer sticky film, and the luminescence signal read by Envision (Perkin Elmer).
# Data analysis • a) % Inhibition was calculated using following equation: […]
# X: compound concentration; Y: % Inhibition
# as §1
microsomal CLint at 1 μM [1] [µL/min/mg],IC50 ([2]; Homo sapiens) [nM],"GI50 ([3]; Homo sapiens, 168 h) [nM]",IC50 [2] [nM],GI50 [3] [nM],Structure (SMILES)
10 to 50,10 to 100,< 10,–,–,"[2H]C([2H])([2H])n1cc(C(F)(F)F)nc1-c1ccc(Cn2c(=O)ccc3cnc(-c4c(OC)ncnc4C4CC4)nc32)cc1 [Compound I-31, 2-(4-Cyclopropyl-6-Methoxypyrimidin-5-Yl)-8-({4-[1-(2H3)Methyl-4-(Trifluoromethyl)Imidazol-2-Yl]Phenyl}Methyl)Pyrido[2,3-d]Pyrimidin-7-One]"
10 to 50,–,–,–,–,"COc1ncnc(C2CC2)c1-c1ncc2ccc(=O)n(Cc3ccc(-c4nc(C(F)(F)F)cn4C)cc3)c2n1 [Compound I-1, 2-(4-Cyclopropyl-6-Methoxypyrimidin-5-Yl)-8-({4-[1-Methyl-4-(Trifluoromethyl)Imidazol-2-Yl]Phenyl}Methyl)Pyrido[2,3-d]Pyrimidin-7-One]"
10 to 50,–,–,–,–,[2H]C([2H])([2H])Oc1ncnc(C2CC2)c1-c1ncc2ccc(=O)n(C([2H])([2H])c3ccc(-c4nc(C(F)(F)F)cn4C([2H])([2H])[2H])cc3)c2n1 [Compound I-57]
10 to 50,–,–,–,–,"COc1ncnc(C2CC2)c1-c1cc2c(ccc(=O)n2Cc2ccc(-c3nc(C(F)(F)F)cn3C)cc2)cn1 [Compound I-11, 7-(4-Cyclopropyl-6-Methoxypyrimidin-5-Yl)-1-({4-[1-Methyl-4-(Trifluoromethyl)Imidazol-2-Yl]Phenyl}Methyl)-1,6-Naphthyridin-2-One]"
10 to 50,–,–,–,–,COc1ncnc(C2CC2)c1-c1ncc2ccc(=O)n(Cc3ccc(-c4nc(C(F)(F)F)cn4C4COC4)cc3)c2n1 [Compound I-59]
10 to 50,10 to 100,10 to 100,–,–,"[2H]C([2H])([2H])n1cc(C(F)(F)F)nc1-c1ccc(C([2H])([2H])n2c(=O)ccc3cnc(-c4c(OC)ncnc4C4CC4)nc32)cc1 [Compound I-37, 2-(4-Cyclopropyl-6-Methoxypyrimidin-5-Yl)-8-({4-[1-(2H3)Methyl-4-(Trifluoromethyl)Imidazol-2-Yl]Phenyl}(2H2)Methyl)Pyrido[2,3-d]Pyrimidin-7-One]"
–,10 to 100,< 10,–,–,"COc1ncnc(C2CC2)c1-c1ncc2ccc(=O)n(Cc3ccc(-c4nc(C(F)(F)F)cn4C)c(F)c3)c2n1 [Compound 72, 2-(4-Cyclopropyl-6-Methoxypyrimidin-5-Yl)-8-({3-Fluoro-4-[1-Methyl-4-(Trifluoromethyl)Imidazol-2-Yl]Phenyl}Methyl)Pyrido[2,3-d]Pyrimidin-7-One]"
10 to 50,–,–,–,–,"COc1ncnc(C2CC2)c1-c1ncc2ncc(=O)n(Cc3ccc(-c4nc(C(F)(F)F)cn4C)cc3)c2n1 [Compound I-17, 2-(4-cyclopropyl-6-methoxypyrimidin-5-yl)-8-({4-[1-methyl-4-(trifluoromethyl)imidazol-2-yl]phenyl}methyl) pteridin-7-one]"
–,< 10,< 10,–,–,"[2H]C([2H])([2H])Oc1ncnc(C2CC2)c1-c1ncc2ccc(=O)n(C([2H])([2H])c3ccc(-c4nc(C(F)(F)F)cn4C([2H])([2H])[2H])cc3)c2n1 [Compound 57, 2-[4-cyclopropyl-6-(2H3)methoxypyrimidin-5-yl]-8-({4-[1-(2H3)methyl-4-(trifluoromethyl)imidazol-2-yl]phenyl}(2H2)methyl)pyrido[2,3-d]pyrimidin-7-one]"
–,–,–,10 to 100,10 to 100,COc1ncnc(C2CC2)c1-c1ncc2ccc(=O)n(C(C)c3ccc(-c4nc(C(F)(F)F)cn4C)cc3)c2n1 (stereo not shown) [Compound 62]
–,–,–,10 to 100,10 to 100,"COc1ncnc(C2CC2)c1-c1ncc2cc(C)c(=O)n(Cc3ccc(-c4nc(C(F)(F)F)cn4C)cc3)c2n1 [Compound 78, 2-(4-cyclopropyl-6-methoxypyrimidin-5-yl)-6-methyl-8-({4-[1-methyl-4-(trifluoromethyl)imidazo]-2-yl]phenylmethyl)pyrido[2,3-d]pyrimidin-7-one]"
–,10 to 100,10 to 100,–,–,COc1ncnc(C2CC2)c1-c1ncc2cc(-c3nccn3C)c(=O)n(Cc3ccc(-c4nc(C(F)(F)F)cn4C4CC4)cc3)c2n1 [Compound I-158]
–,10 to 100,10 to 100,–,–,"COc1ncnc(C2CC2)c1-c1ncc2nc(-c3cn(C)cn3)c(=O)n(Cc3ccc(-c4nc(C(F)(F)F)cn4C4CC4)cc3)c2n1 [Compound I-160, 8-({4-[1-Cyclopropyl-4-(Trifluoromethyl)Imidazol-2-Yl]Phenyl}Methyl)-2-(4-Cyclopropyl-6-Methoxypyrimidin-5-Yl)-6-(1-Methylimidazol-4-Yl)Pteridin-7-One]"
–,10 to 100,10 to 100,–,–,COc1ncnc(C2CC2)c1-c1ncc2cc(-c3cnn(C)c3)c(=O)n(Cc3ccc(-c4nc(C(F)(F)F)cn4C)cc3)c2n1 [Compound 64]
